From patent US11041010B2, “Hybrid peptidomimetics for use in neuropathic pain” (Uniwersytet Warszawski, priority 2017, dated 2021)
Positions of bridges follow the written chain, without caps; N, C: chain ends. Non-standard residues stand in square brackets, D forms with d. No end group written: not given here. d2Nal = N[C@H](Cc1ccc2ccccc2c1)C(=O)O; Nle = CCCC[C@H](N)C(=O)O; Ahx = NCCCCCC(=O)O; βAla = NCCC(=O)O

Columns and labels:
[1] = test system: CCI mice (mouse model of neuropathic pain); assay: Mouse model of neuropathic pain (CCI), von Frey and cold plate tests taken together, intrathecal administration; format: in vivo; details: for analgesic activity of the reference compounds (mice, first stage): reason why no ED50 was calculated; for analgesic activity in neuropathic pain (mice): CCI mice, von Frey and cold plate tests, FIGS. 1-7 (B, C)
Experimental: (§1) Albino Swiss mice were subjected to a loose unilateral ligation of the right sciatic nerve (a chronic constriction injury, CCI) according to the model developed by Bennett and Xie, Pain 33, 87-107, […]. […] The tests permitted to determine the analgesic efficiency of the novel compounds in the model of neuropathic pain. In the control mice (due to the absence of hypersensitivity, which characterizes neuropathic pain) at the same time points, a test of tail flick was conducted to determine pain threshold in the acute pain after intrathecal administration of the hybrid peptidomimetics.

[2] = test system: healthy mice (control mice); assay: Tail flick test, acute pain threshold in control mice after intrathecal administration; format: in vivo, mouse; details: for analgesic activity in control mice: healthy mice, FIGS. 1-7 (A)
Experimental: as §1
(§2) The results were presented for doses in micrograms, at which a half (50%) of the maximum effect (ED50) is reached. Calculation of the ED50 value requires clear dose-dependent effects.

[3] = test system: CCI mice (mouse model of neuropathic pain); assay: Von Frey test (allodynia) in mice with sciatic nerve injury (CCI), intrathecal administration; format: in vivo; details: mice in the neuropathic pain model, range in brackets
Experimental: as §1, §2

[4] = test system: CCI mice (mouse model of neuropathic pain); assay: Cold plate test (hyperalgesia) in mice with sciatic nerve injury (CCI), intrathecal administration; format: in vivo; details: mice in the neuropathic pain model, cold plate 2° C., range in brackets
Experimental: as §1, §2

[5] = test system: healthy rats (control rats); assay: Acute pain threshold in healthy (control) rats after intrathecal administration; format: in vivo; details: 0.1 μg/5 μl/rat, FIGS. 10-13 (A)
[6] = test system: CCI rats (rat model of neuropathic pain); assay: Rat model of neuropathic pain (CCI), von Frey and cold plate tests after intrathecal administration; format: in vivo; details: 0.1 μg/5 μl/rat, FIGS. 10-13 (B, C)
Experimental: Wistar rats were subjected to cannulation for intrathecal administration by a method of Yaksh, T. L., Rudy, T. A., described in Physiol. Behay. 17, 1031-1036, 1976, and seven days after this procedure, a loose unilateral ligation of the right sciatic nerve (a chronic constriction injury, CCI) according to the model developed by Bennett and Xie (1988). After seven days from the CCI procedure, behavioral tests were conducted: the von Frey test and cold plate test to measure hypersensitivity to tactile and thermal stimuli, respectively. Hypersensitivity developed after injury of the nerve to two types of stimuli is a symptom of neuropathy.

[7] = test system: CCI mice (mouse model of neuropathic pain); assay: Mouse model of neuropathic pain (CCI), von Frey and cold plate tests after intravenous administration; format: in vivo; details: CCI mice, 15, 30 and 120 min, FIGS. 8-9
Experimental: In the second stage of the pharmacological studies, the effect of the peripheral, intravenous administration of the hybrid peptidomimetics according to the invention (UW3, UW5) on the sensitivity to a mechanical stimulus (A) (von Frey test) and thermal stimulus (B) (cold plate test) threshold compared to a control group receiving water for injection was tested on mice in the neuropathy model (FIGS. 8 and 9). The studies were conducted at days 7-14 from the CCI procedure on mice at 15, 30 and 120 min after intravenous administration of the hybrid peptidomimetics UW3 and UW5 in the selected doses.

Row | Substance | analgesic activity of the reference compounds (mice, first stage) [1] | Control mice Tail flick test ED50 ([2]; control mice, dose giving 50% of maximum effect, range in brackets) | analgesic activity in control mice [2] | Von Frey test (allodynia) ED50 [3] | Cold plate (hyperalgesia) ED50 [4] | analgesic activity in neuropathic pain (mice) [1] | analgesic activity in healthy (control) rats [5] | analgesic activity in the rat model of neuropathic pain [6] | analgesic efficiency after peripheral, intravenous administration [7]
1 | Tyr-D-Ala-Gly-Phe-4AMB-Nle-cyclo[Asp-His-D-Nal(2′)-Arg-Trp-Lys]-NH2 [UW6] | very weak and dose dependency-deprived analgesic activity |  |  |  |  |  |  |  | 
2 | Tyr-D-Ala-Gly-Phe-NH2 [UW1, reference compound] |  | 0.03 (0.02-0.05) μg | show activity | 0.16 (0.1-0.25) μg | 9.3 (2.7-32)^ μg | weakened in both or at least one hypersensitivity determining test | weak activity | weak activity | 
3 | Y[dA]GF[Ahx][Ahx][Nle]DH[d2Nal]RWK-NH2 (lactam 8-13) [UW5] |  |  | limited analgesic efficiency | 0.02 (0.00003-15) μg | 0.2 (0.008-6.5) μg | higher analgesic efficiency | very weak activity | reaches maximum values | high analgesic efficiency
4 | Y[dA]GF[Ahx][Nle]DH[d2Nal]RWK-NH2 (lactam 7-12) [UW3] |  |  | limited analgesic efficiency | 0.0004 (0.0001-0.002) μg | 0.008 (0.005-0.01) μg | higher analgesic efficiency | very weak activity | reaches maximum values | high analgesic efficiency
5 | Y[dA]GF[dA][Nle]DH[d2Nal]RWK-NH2 (lactam 7-12) [UW2] | very weak and dose dependency-deprived analgesic activity |  |  |  |  |  |  |  | 
6 | Y[dA]GF[βAla][Nle]DH[d2Nal]RWK-NH2 (lactam 7-12) [UW4] | very weak and dose dependency-deprived analgesic activity |  |  |  |  |  |  |  | 
